Consider 2 sequences from patent US11186612B2, “Substance P analog having progenitor cell or stem cell recruiting activity and method for progenitor cell or stem cell recruiting using the same” (AJOU UNIVERSITY INDUSTRY-ACADEMIC COOPERATION FOUNDATION, priority 2019, dated 2021).

The test system of test [1] is human-derived MSCs (hMSCs). Description: Stem cell migration evaluation ex vivo (24-well Transwell plate, PKH 26-labeled hMSCs). Type of test: cell-based. As to conditions: 1 μg/mL in DMEM + 1% FBS in bottom well, FIG. 2; for stem cell migration compared with the control: hMSCs in upper chamber. How it is done:
In the present invention, to compare the stem cell recruiting activities of SP and the SP1 of the present invention, stem cell migration was evaluated in an ex vivo environment.
First, human-derived MSCs (hMSCs) were labeled with a PKH 26 dye (Sigma, USA), and 5×10^4 cells were put into an upper chamber (8.0 μm pore size) of a 24-well Transwell plate (SPL, Korea). After the hMSCs were cultured in the upper chamber for 48 hours using a serum-free DMEM (Gibco, USA), a medium prepared under the following conditions in Table 2 was added into a bottom well, and then the medium was replaced with a fresh one every third day, followed by observing hMSCs in the bottom well using a fluorescence microscope.

For test [2], the system named is human-derived MSCs (hMSCs). Description: In vivo migration of ICG-labeled hMSCs to injected Cx-HA hydrogel containing SP or SP1 (NIR fluorescence imaging). Further details: species or system nude mouse. The following applies: for fluorescence (recruited hMSC) at injected site: NIR-labeled Cx-HA hydrogel with 1 μg/mL peptide injected in one side of nude mouse, hMSCs via caudal vein, control Cx-HA no fluorescence. On the procedure: Each of the NIR-HA-TET and NIR-HA-TCO, which were prepared in Example 3-1, was dissolved in 2% physiological saline to have a volume of 20 mg/mL, thereby preparing an aqueous solution, and 1 μg/mL of SP having an amino acid sequence of SEQ ID NO: 1 or SP1 having an amino acid sequence of SEQ ID NO: 2 was added to each solution. After 1-hour stirring, a hyaluronic acid hydrogel solution containing a stem cell recruiting factor was obtained by mixing the mixed solution prepared by stirring each of the solutions using a dual syringe.
NIR-labeled Cx-HA was injected into one side of a nude mouse, and NIR-labeled Cx-HA containing a stem cell recruiting factor was injected into the other side thereof, as shown in Table 3.
To visually confirm the extent of stem cell recruiting of SP1 in the present invention, hMCSs were labeled with indocyanine green and injected into a mouse caudal vein.
First, an indocyanine green (ICG) solution was prepared by dissolving 2 mg of ICG in 200 μL of DMSO, and mixing the resulting solution with 800 μL of a culture medium (DMEM (low-glucose)+10% FBS+1% penicillin-streptomycin). 10 μL of a 10 mg/mL protamine solution, 600 μL of the ICG solution and 600 μL of MEM-α were mixed, and gently stirred for 5 minutes. Afterward, the medium was removed from the flask in which hMSCs were cultured, replaced with 10 mL of a serum-free DMEM (low-glucose) medium, and then incubated for 1 hour at 37° C. under a 5% CO2 condition by adding a protamine/ICG solution.
Subsequently, the medium was removed, and the cells were washed with 10 mL PBS and treated with trypsin, thereby obtaining hMSCs. The hMSCs were prepared to be 1×10^6 cells/100 μL, and […] was injected into the caudal veins of nude mice using a […] syringe (FIG. 3). NIR fluorescence imaging was performed at a predetermined time using FOBI (NeoScience, Suwon, Korea) at 730 nm under conditions of an exposure of 2000 ms and a gain of 5.
To confirm the extent of promotion of in vivo hMSC migration by SP1 in the present invention, the hMSC-injected nude mice prepared in Example 4 were subjected to NIR fluorescence imaging using FOBI (NeoScience, Suwon, Korea) at 730 nm under conditions of an exposure of 2000 ms and a gain of 5.

Where no end group is shown, it is not given here.

Take RISPQQRDALA (SP1): in test [1], the “number of moved stem cells compared with the SP-treated group” value is recorded as “high” and the “stem cell migration compared with the control” value is on record as “stem cells moved”. In addition, the “stem cell recruiting activity maintenance time” value in test [2] (Cx-HA hydrogel 1 μg/mL peptide, nude mouse, FIG. 6, compared with conventional SP) is listed as “longer”. For the same sequence, the “stem cell recruiting activity, comparing FIGS. 4 (SP) and 5 (SP1)” value in test [2] (Cx-HA hydrogel 1 μg/mL peptide, nude mouse, NIR imaging over time, compared with SP) is on record as “higher stem cell recruiting activity”. The “amount of stem cells moved to the injected site, quantified (FIG. 6): stem cell recruiting activity” value in test [2] (Cx-HA hydrogel 1 μg/mL peptide, nude mouse, compared with conventional SP) is given as “higher stem cell recruiting activity”. Moreover, in test [2], the “fluorescence (recruited hMSC) at injected site” value is recorded as “fluorescence was observed”.

Regarding “RPKPQQFFGLM (RPKPQQFFGLM-NH2) [SP, neuropeptide of 11 amino acids (Arg-Pro-Lys-Pro-Gln-Gln-Phe-Phe-Gly-Leu-Met-NH2), endogenous NKR1 ligand, reference compound]”, the “stem cell migration compared with the control” value in test [1] is “stem cells moved”. Further, the “fluorescence (recruited hMSC) at injected site” value in test [2] was “fluorescence was observed”.
